Assay results published in US12553889B2, “Small molecules targeting the intrinsically disordered structural ensemble of α-synuclein protect against diverse α-synuclein mediated dysfunctions” (The Regents of the University of California, priority 2019, dated 2026).

How the values were obtained:
[1] = test system: BACE, GST and CAII control proteins; test: Biacore 4000 SPR binding specificity (pb-index, control proteins); settings: 100 μM
Procedure: The binding specificity of 576755 and its analogues was assessed by testing their ability to bind to αSyn versus a set of control proteins: Beta-Site Amyloid Precursor Protein Cleaving Enzyme 1 (BACE), Glutathione-S transferase (GST) and Carbonic Anhydrase (CAII). The binding data was merged into a pb-index, as discussed in more detail below. Compounds were tested at 100 μM using the Biacore 4000 instrument as described below. […] The percent RMax (% Rmax) for αSyn and the average % Rmax for the control proteins (pb-index) were calculated described below. […] The remaining 576755-analogues show no reaction with the control proteins and thus have improved specificity of binding.
Preparation of off-target protein sensor chips. […]
(§1) Surface Plasmon Resonance Measurements. […] Time-dependent binding curves were monitored simultaneously. […] The time-dependent binding curves were monitored simultaneously. […]
SPR Data Evaluation. The obtained data were quality controlled and evaluated using the manufacturers Evaluation Software as described previously (Regnström, K. et al. (2013)). Data were exported into Microsoft Excel and further analyzed as follows: The binding levels of running buffer injections were used to calculate the background noise level (>three-fold σ). All binding level data was calculated by subtracting the background noise level and adjustment to molecular weight (% Rmax). […]

αSyn = αSyn (Homo sapiens, UniProt P37840); test: Biacore T200 SPR kinetics and affinity to tethered αSyn; assay type: binding; design: made in house; host or cells: E. coli
Procedure: RU (resonance units) from the Biacore machine are plotted against time. […] 576755 was injected at six concentrations in two-fold dilutions starting at 200 μM in running buffer containing 25 mM TRIS pH 7.4, 100 mM NaCl, 1% DMSO. […] All data were fitted to 1:1 binding model using the T200 software evaluation.
A Biacore Surface Plasmon Resonance (SPR) method was developed to detect binding to αSyn both in a high throughput manner (Biacore 4000 machine) and in a sensitive format (Biacore T200). A dual capture method was developed in which αSyn is captured both by an antibody to the central region of αSyn and by immobilized N-termal His-tagged αSyn. […]
as §1
Affinity constants were determined using the Biacore T200 evaluation software V.1 by curve fitting using a 1:1 binding model. […] The rate of complex formation during fragment injection is calculated according to the equation (2): dR/dt=kaC(Rmax−R)−kdR (1:1 interaction), where R is the SPR signal in response units (RU), C is the concentration of analyte, Rmax is the maximum analyte binding capacity in RU, and dR/dt is the rate of SPR signal change. […]

Kd (αSyn; six concentrations in two-fold dilutions from 200 μM, 25 mM TRIS pH 7.4, 100 mM NaCl, 1% DMSO, read-out: binding affinity for αSyn (kinetics fits, 1:1 binding model)): 73 µM
Structure (SMILES): CNC(=O)c1cc(O)ccc1N [Compound 576755, 2-amino-5-hydroxy-N-methylbenzamide]
binding to control proteins (pb-index versus % Rmax of αSyn binding) [1]: some non-specific binding to the control proteins
binding behaviour (Biacore traces, off rates) (αSyn; tethered αSyn): well-behaved, robust and reversible binding
